Experimental data: patent US9777106B2, “Bisphenol polymer precursor replacements” (CASE WESTERN RESERVE UNIVERSITY, priority 2013, dated 2017)

Assays:
[1] = test system: mouse embryonic stem cell line (endothelial differentiation reporter); assay: Endothelial differentiation assay in reporter mouse embryonic stem cell line (green fluorescent protein readout); type: cell-based; details: FIG. 1; for effect on estrogen receptor function: reporter cell line; for effect on cell (endothelial) differentiation: reporter mouse embryonic stem cell line, cells differentiated after incubation
From the text: Bisphenols have come under increasing scrutiny due to their capacity to mimic estrogen in biological systems, resulting in numerous health complications. Specifically these effects have been observed in endothelial cell differentiation. Bredhult et al., “Gene expression analysis of human endometrial endothelial cells exposed to Bisphenol A,” Reproductive toxicology (Elmsford, N.Y 28, 18-25 (2009). Long et al., Experimental biology and medicine, 226, 477-483 (2001). Accordingly, experiments have been carried out to evaluate the cytotoxicity and differentiation effect of a biologically derived bisphenol polymer precursor replacement. Resveratrol and bisphenol A were incubated with mouse embryonic stem cells and evaluated for cytotoxicity and apoptosis. Cells were then differentiated and evaluated for effect on endothelial differentiation. […] Further studies are planned to test further stages of resveratrol epoxidization. The inventor's lab has developed a mouse embryonic stem cell line capable of providing a quantitative readout of endothelial differentiation due to expression of a green fluorescent protein. Using these and similar cell lines we have been able to assay the effect of new molecules on cell proliferation, death, apoptosis, and endothelial differentiation. Robilotto et al., Dalton Transactions, 40(32): 8083-5 (2011). This cell line will be used to determine the biological effect of the newly proposed polymers as compared to the effect of benchmark controls. Protocols similar to those previously published can be used to determine the biocompatibility of the new polymers as compared to that of benchmark resin, evaluating the capacity of mouse embryonic stem cells to proliferate, their rate of cell death by toxicity or apoptosis, and their capacity to differentiate into […]. Kim et al., Tissue engineering, 15, 3709-3718 (2009); Kim et al., Tissue engineering, 16, 1065-1074 (2010).

[2] = test system: mouse embryonic stem cells; assay: Cytotoxicity and apoptosis assay (annexin-V / 7-AAD) in mouse embryonic stem cells; type: cell-based; details: incubated with mouse embryonic stem cells; FIG. 1
From the text: Bisphenols have come under increasing scrutiny due to their capacity to mimic estrogen in biological systems, resulting in numerous health complications. Specifically these effects have been observed in endothelial cell differentiation. Bredhult et al., “Gene expression analysis of human endometrial endothelial cells exposed to Bisphenol A,” Reproductive toxicology (Elmsford, N.Y 28, 18-25 (2009). Long et al., Experimental biology and medicine, 226, 477-483 (2001). Accordingly, experiments have been carried out to evaluate the cytotoxicity and differentiation effect of a biologically derived bisphenol polymer precursor replacement. Resveratrol and bisphenol A were incubated with mouse embryonic stem cells and evaluated for cytotoxicity and apoptosis. Cells were then differentiated and evaluated for effect on endothelial differentiation. […]
The procedure for testing toxicity was and can be carried out as follows. […] 100,000 E14 cells were added to a 10 cm plate, covered with 1, 10 and 100 mg of polymer sample, and incubated for 48 hours followed by application of the MTT dye solutions and measurement of absorbance at 570 nm.
The number of apoptotic cells are quantified using an annexin-V apoptosis staining kit with 7-Amino-actinomycin D (7-AAD) vital stain (AnnexinV—PE Apoptosis Detection Kit; BD Biosciences Pharmingen, San Diego, Calif.). […]

SMILES	effect on estrogen receptor function [1]	effect on cell (endothelial) differentiation [1]	over toxicity using the apoptosis assay [2]	effect on estrogen receptor function ([1]; listed as BPA)	effect on cell (endothelial) differentiation ([1]; listed as BPA)
Oc1ccc(C=Cc2cc(O)cc(O)c2)cc1 [Resveratrol, resveratrol]	little to no impact on estrogen receptor function	comparable to negative controls	relatively indistinguishable	–	–
CC(C)(c1ccc(O)cc1)c1ccc(O)cc1 [bisphenol A]	clearly interferes with estrogen receptor function	negatively effects cell differentiation	relatively indistinguishable	interferes estrogen receptor function	negatively impacts cell differentiation
